# In patent publication US20250368616A1, “NITROGEN-CONTAINING HETEROCYCLIC DERIVATIVE INHIBITOR, AND PREPARATION METHOD THEREFOR AND USE THEREOF” (SHANGHAI HANSOH BIOMEDICAL CO., LTD., priority 2021, published 2025):
# Molecular target: EGFR del19/T790M/C797S mutant kinase (Homo sapiens, UniProt P00533, C797S/DEL746-750/T790M)
# Experiment: HTRF kinase assay, EGFR del19/T790M/C797S mutant kinase
# Format: biochemical
# Conditions: 120 minutes at room temperature
# Description: Test Example 1. Determination of the Inhibitory Effect of the Compounds of the Present Invention on the Activity of EGFR del19/T790M/C797S and EGFR L858R/T790M/C797S Mutant Kinases
# Experimental objective: The objective of this test example is to test the inhibitory activity of the compounds on the activity of EGFR del19/T790M/C797S and EGFR L858R/T790M/C797S mutant kinases.
# Experimental method: This experiment used Cisbio's HTRF kinase assay method (Cisbio #62TK0PEB), wherein a catalytic reaction occurred between the substrate polypeptide TK and ATP in the presence of the tyrosine kinase with EGFR del19/T790M/C797S or EGFR L858R/T790M/C797S mutation, the substance was phosphorylated, and the activity of the kinase was characterized by measuring the content of the phosphorylated substrate generated during the reaction, and the half inhibitory concentration IC50 of the compound on the activity of EGFR del19/T790M/C797S or EGFR L858R/T790M/C797S mutant kinase was obtained.
# Specific Experimental Operations were as Follows: • the kinase reaction was carried out in a white 384-well plate (Perkin Elmer #6008280), and 1-5 μL of compounds of different concentrations which were diluted with 1% DMSO-containing ddH2O were added; to the positive control wells were added 1-5 μL of 1% DMSO-containing ddH2O, followed by 1-5 μL of 0.5-5 nM 4×EGFR del19/T790M/C797S or EGFR L858R/T790M/C797S mutant kinase solution which was diluted with Dilution buffer (5× kinase buffer, MgCl2 6.65 Mm, MnCl2 1.33 mM, DTT 1.33 mM); to the negative control wells were added 1-5 μL of Dilution buffer; to all the wells were added 1-5 μL of 4 μM 4× substrate TK solution which was prepared with 10× Dilution buffer, and finally added 1-5 μL of 24 μM 4×ATP solution which was diluted with Dilution buffer to start the reaction; after reacting at room temperature for 120 minutes, 10 μL of detection solution (TK antibody 16 nM, XL665 0.5 μM) was added to each well, same was reacted at room temperature in the dark for 20 minutes, and then the […] was detected using a BioTek Synergy H1 microplate reader.
# The percent inhibition data for compound-treated wells was calculated according to the positive control wells (DMSO control wells) and negative control wells (no kinase added) on the plate {% inhibition rate=100−[(test compound value−negative control value)]/(positive control value−negative control value)×100}. GraphPad prism was used to fit different concentrations and corresponding percent inhibition rate data to a 4-parameter nonlinear logistic equation to calculate IC50 values.
# EGFR del19/T790M/C797S mutant kinase, sequence (P00533 with tags, fused parts or gaps C797S/DEL746-750/T790M limits assumed): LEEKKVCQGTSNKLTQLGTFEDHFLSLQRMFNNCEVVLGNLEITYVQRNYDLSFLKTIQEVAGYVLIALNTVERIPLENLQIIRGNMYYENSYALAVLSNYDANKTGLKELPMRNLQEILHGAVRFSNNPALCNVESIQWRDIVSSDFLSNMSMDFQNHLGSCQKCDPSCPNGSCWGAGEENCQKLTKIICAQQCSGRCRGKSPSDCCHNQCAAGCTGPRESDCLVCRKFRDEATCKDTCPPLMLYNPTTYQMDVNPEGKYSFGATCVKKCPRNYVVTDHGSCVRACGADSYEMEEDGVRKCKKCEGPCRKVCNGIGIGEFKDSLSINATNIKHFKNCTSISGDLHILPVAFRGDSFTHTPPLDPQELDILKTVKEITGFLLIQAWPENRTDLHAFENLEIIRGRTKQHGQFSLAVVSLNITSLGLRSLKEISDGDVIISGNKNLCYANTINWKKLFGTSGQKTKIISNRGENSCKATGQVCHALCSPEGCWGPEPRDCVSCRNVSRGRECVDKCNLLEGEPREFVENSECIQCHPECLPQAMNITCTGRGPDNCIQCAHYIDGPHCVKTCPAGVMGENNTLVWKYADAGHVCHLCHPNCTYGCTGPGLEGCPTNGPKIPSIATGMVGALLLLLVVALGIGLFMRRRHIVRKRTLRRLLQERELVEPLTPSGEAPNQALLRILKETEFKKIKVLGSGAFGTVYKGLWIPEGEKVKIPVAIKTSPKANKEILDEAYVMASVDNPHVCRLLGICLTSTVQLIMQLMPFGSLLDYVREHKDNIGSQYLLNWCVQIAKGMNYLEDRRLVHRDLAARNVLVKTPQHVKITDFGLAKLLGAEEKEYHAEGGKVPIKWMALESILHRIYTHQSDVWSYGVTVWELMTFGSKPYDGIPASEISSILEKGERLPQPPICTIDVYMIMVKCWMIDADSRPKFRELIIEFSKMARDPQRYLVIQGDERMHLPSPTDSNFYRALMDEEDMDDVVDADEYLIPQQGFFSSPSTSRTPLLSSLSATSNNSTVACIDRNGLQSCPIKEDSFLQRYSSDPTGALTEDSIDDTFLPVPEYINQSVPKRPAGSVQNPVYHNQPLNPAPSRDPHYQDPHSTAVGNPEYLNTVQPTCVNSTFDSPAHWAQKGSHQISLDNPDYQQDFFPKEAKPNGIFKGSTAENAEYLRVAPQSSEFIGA
row,IC50 [nM],Structure (SMILES)
1,9.1,"CC(C)c1ccc(N2C[C@H](CS(C)(=O)=O)[C@H]2C)c2cnc(Nc3ccnc(-c4cnn(CC5(CC#N)CC5)c4)n3)cc12 [Example 18, 2-(1-((4-(4-((5-isopropyl-8-((2R,3S)-2-methyl-3-((methanesulfonyl)methyl)azetidin-1-yl)isoquinolin-3-yl)amino)pyrimidin-2-yl)-1H-pyrazol-1-yl)methyl)cyclopropyl)acetonitrile]"
2,7.5,"CC(C)c1ccc(N2C[C@H](CS(C)(=O)=O)[C@H]2C)c2cnc(Nc3ccnc(-c4cncs4)n3)cc12 [Example 54, 5-isopropyl-8-((2R,3S)-2-methyl-3-((methanesulfonyl)methyl)azetidin-1-yl)-N-(2-(thiazol-5-yl)pyrimidin-4-yl)isoquinolin-3-amine]"
3,4.2,"CC(C)c1ccc(N2C[C@H](CS(C)(=O)=O)[C@H]2C)c2cnc(Nc3ccnc(-c4cnn(CCO)c4)n3)cc12 [Example 48, 2-(4-(4-((5-isopropyl-8-((2R,3S)-2-methyl-3-((methanesulfonyl)methyl)azetidin-1-yl)isoquinolin-3-yl)amino)pyrimidin-2-yl)-1H-pyrazol-1-yl)ethan-1-ol]"

# System: Ba/F3 EGFR Del19/C797S cells
# Experiment: Cell proliferation inhibition assay (Cell Titer-Glo), Ba/F3 EGFR Del19/C797S
# Format: cell-based
# Conditions: 72 hours, read-out: Ba/F3 EGFR Del19_C797S IC50
# Description: Test Example 2: Cell Proliferation Inhibition Assay
# Experimental objective: The objective of this test example is to test the inhibitory activity of compounds on the proliferation of different EGFR C797S drug-resistant mutant cell lines Ba/F3 EGFR Del19/T790M/C797S, Ba/F3 EGFR L858R/T790M/C797S, and Ba/F3 EGFR Del19/C797S.
# • Ba/F3 EGFR Del19/T790M/C797S cells were purchased from KYinno Biotechnology Co., Ltd.; • Ba/F3 EGFR Del19/C797S cells were purchased from CoBioer Biosciences Co., Ltd.; • Ba/F3 EGFR L858R/T790M/C797S cells were purchased from CoBioer Biosciences Co., Ltd.; • Cell Titer-Glo was purchased from Promega, with a catalog number of G7573; • RPMI 1640 was purchased from Gibco, with a catalog number of 22400089; • FBS was purchased from Gibco, with a catalog number of 10091148; • cell culture plates were purchased from Corning, with a catalog number of 3610.
# The inhibitory activity of the compound on the proliferation of different EGFR C797S drug-resistant mutant cell lines was detected using the Cell Titer-Glo method. The different cell lines were cultured in RPMI 1640 complete culture medium containing 10% FBS under conditions of 37° C. and 5% CO2, the cells were collected by centrifugation when growing to a certain density, and adjusted to appropriate cell density after counting, the cells were spread on a white 96-well plate at 90 μL/well, and cultured in a 37° C., 5% CO2 incubator overnight, prepared compound solutions of different concentrations were added at 10 μL/well, corresponding solvent controls were set, and all wells were cultured in a 37° C., 5% CO2 incubator for 72 hours, 50 μL of CellTiter-Glo solution was added to each well, shook and mixed evenly, and incubated in the dark for 10 minutes, and a BioTek Synergy H1 microplate reader was used for reading.
# The luminescence signal value was used to calculate the inhibition rate. Graphpad Prism software was used to fit the concentration and inhibition rate to a nonlinear regression curve, so as to obtain the IC50 value, as shown in Tables 3 and 4 below for details.
row,IC50 [nM],Structure (SMILES)
1,93,"CC(C)c1ccc(N2CC(N3C[C@@H](C)OC3=O)C2)c2cnc(Nc3ccnc(-c4cn(C)nc4Cl)n3)cc12 [Example 84, (R)-3-(1-(3-((2-(3-chloro-1-methyl-1H-pyrazol-4-yl)pyrimidin-4-yl)amino)-5-isopropylisoquinolin-8-yl)azetidin-3-yl)-5-methyloxazolidin-2-one]"
2,62,"CC(C)c1ccc(N2C[C@H](CS(C)(=O)=O)[C@H]2C)c2cnc(Nc3ccnc(-c4cn(CCO)nc4C(F)(F)F)n3)cc12 [Example 59, 2-(4-(4-((5-isopropyl-8-((2R,3S)-2-methyl-3-((methanesulfonyl)methyl)azetidin-1-yl)isoquinolin-3-yl)amino)pyrimidin-2-yl)-3-(trifluoromethyl)-1H-pyrazol-1-yl)ethan-1-ol]"
3,12,"Cc1nn(C)c(F)c1-c1nccc(Nc2cc3c(C(C)C)ccc(N4C[C@H](CS(C)(=O)=O)[C@H]4C)c3cn2)n1 [Example 77, N-(2-(5-fluoro-1,3-dimethyl-1H-pyrazol-4-yl)pyrimidin-4-yl)-5-isopropyl-8-((2R,3S)-2-methyl-3-((methanesulfonyl)methyl)azetidin-1-yl)isoquinolin-3-amine]"
4,26,"Cc1nn(C)cc1-c1nccc(Nc2cc3c(C(C)C)ccc(N4CC(NS(C)(=O)=O)C4)c3cn2)n1 [Example 60, N-(1-(3-((2-(1,3-dimethyl-1H-pyrazol-4-yl)pyrimidin-4-yl)amino)-5-isopropylisoquinolin-8-yl)azetidin-3-yl)methanesulfonamide]"
5,60,"CC(C)c1ccc(N2C[C@H](CS(C)(=O)=O)[C@H]2C)c2cnc(Nc3ccnc(-c4c[nH]nc4Cl)n3)cc12 [Example 10, N-(2-(3-chloro-1H-pyrazol-4-yl)pyrimidin-4-yl)-5-isopropyl-8-((2R,3S)-2-methyl-3-((methanesulfonyl)methyl)azetidin-1-yl)isoquinolin-3-amine]"
6,20,"CC(C)c1ccc(N2C[C@H](CS(C)(=O)=O)[C@H]2C)c2cnc(Nc3ccnc(-c4cn(CCC#N)nc4Cl)n3)cc12 [Example 67, 3-(3-chloro-4-(4-((5-isopropyl-8-((2R,3S)-2-methyl-3-((methanesulfonyl)methyl)azetidin-1-yl)isoquinolin-3-yl)amino)pyrimidin-2-yl)-1H-pyrazol-1-yl)propanenitrile]"
7,32,"CC(C)c1ccc(N2C[C@H](CS(C)(=O)=O)[C@H]2C)c2cnc(Nc3ccnc(-c4cncs4)n3)cc12 [Example 54, 5-isopropyl-8-((2R,3S)-2-methyl-3-((methanesulfonyl)methyl)azetidin-1-yl)-N-(2-(thiazol-5-yl)pyrimidin-4-yl)isoquinolin-3-amine]"
8,73,"CC(C)c1c(F)cc(N2C[C@H](CS(C)(=O)=O)[C@H]2C)c2cnc(Nc3ccnc(-c4cnn(C)c4)n3)cc12 [Example 39, 6-fluoro-5-isopropyl-N-(2-(1-methyl-1H-pyrazol-4-yl)pyrimidin-4-yl)-8-((2R,3S)-2-methyl-3-((methanesulfonyl)methyl)azetidin-1-yl)isoquinolin-3-amine]"
9,28,"CC(C)c1ccc(N2CC(C[N+](=O)[O-])C2)c2cnc(Nc3ccnc(-c4cn(C)nc4Cl)n3)cc12 [Example 75, N-(2-(3-chloro-1-methyl-1H-pyrazol-4-yl)pyrimidin-4-yl)-5-isopropyl-8-(3-(nitromethyl)azetidin-1-yl)isoquinolin-3-amine]"
10,85,"CC(C)c1ccc(N2C[C@H](CS(C)(=O)=O)[C@H]2C)c2cnc(Nc3ccnc(-c4cnn(CCO)c4)n3)cc12 [Example 48, 2-(4-(4-((5-isopropyl-8-((2R,3S)-2-methyl-3-((methanesulfonyl)methyl)azetidin-1-yl)isoquinolin-3-yl)amino)pyrimidin-2-yl)-1H-pyrazol-1-yl)ethan-1-ol]"
11,30,"CC(C)c1ccc(C2CC(CS(C)(=O)=O)C2)c2cnc(Nc3ccnc(-c4cn(C)nc4Cl)n3)cc12 (stereo not shown) [Example 63, N-(2-(3-chloro-1-methyl-1H-pyrazol-4-yl)pyrimidin-4-yl)-5-isopropyl-8-(3-((methanesulfonyl)methyl)cyclobutyl)isoquinolin-3-amine]"
12,26,"CCc1nn(C)cc1-c1nccc(Nc2cc3c(C(C)C)ccc(N4C[C@H](CS(C)(=O)=O)[C@H]4C)c3cn2)n1 [Example 57, N-(2-(3-ethyl-1-methyl-1H-pyrazol-4-yl)pyrimidin-4-yl)-5-isopropyl-8-((2R,3S)-2-methyl-3-((methanesulfonyl)methyl)azetidin-1-yl)isoquinolin-3-amine]"
13,56,"CC(C)c1ccc(N2C[C@H](CS(C)(=O)=O)[C@H]2C)c2cnc(Nc3ccnc(-c4cnn(C5CC5(F)F)c4)n3)cc12 (stereo partly drawn) [Example 12, N-(2-(1-(2,2-difluorocyclopropyl)-1H-pyrazol-4-yl)pyrimidin-4-yl)-5-isopropyl-8-((2R,3S)-2-methyl-3-((methanesulfonyl)methyl)azetidin-1-yl)isoquinolin-3-amine]"
14,51,"CC(C)c1ccc(N2C[C@H](CS(C)(=O)=O)[C@H]2C)c2cnc(Nc3ccnc(-c4cnn(C5(CC#N)CC5)c4)n3)cc12 [Example 50, 2-(1-(4-(4-((5-isopropyl-8-((2R,3S)-2-methyl-3-((methanesulfonyl)methyl)azetidin-1-yl)isoquinolin-3-yl)amino)pyrimidin-2-yl)-1H-pyrazol-1-yl)cyclopropyl)acetonitrile]"
15,21,"CC(C)c1ccc(N2CC(N3CCCS3(=O)=O)C2)c2cnc(Nc3ccnc(-c4cn(C)nc4Cl)n3)cc12 [Example 68, 2-(1-(3-((2-(3-chloro-1-methyl-1H-pyrazol-4-yl)pyrimidin-4-yl)amino)-5-isopropylisoquinolin-8-yl)azetidin-3-yl)isothiazolidine 1,1-dioxide]"
16,40,"CC(C)c1ccc(N2C[C@H](CS(C)(=O)=O)[C@H]2C)c2cnc(Nc3ccnc(-c4cn(C)nc4F)n3)cc12 [Example 62, N-(2-(3-fluoro-1-methyl-1H-pyrazolyl-4-yl)pyrimidin-4-yl)-5-isopropyl-8-((2R,3S)-2-methyl-3-((methanesulfonyl)methyl)azabut-1-yl)isoquinolin-3-amine]"
